Laboratory results as given in patent EP0745595A1, “3-(3-Aryloxyphenyl)-1-(substituted methyl)-s-triazine-2,4,6-oxo or thiotrione herbicidal agents” (American Cyanamid Company, priority 1995, dated 1996).

Key:
Format in all cases: in vivo
[1] = system: ORYZA SATIVA, L. CV. KOSHIHIKARI; assay: Post-transplant rice evaluation under flooded paddy conditions (Example 43), ORYSAK (Rice, Koshihikari); design: key: visual rating on a 0-9 scale, compared with control; settings: applied three days after transplanting rice, 25 to 30 days after treatment
Method: (§1) Results of herbicide evaluation are expressed on a rating scale (0-9). The scale is based upon a visual observation of plant stand, vigor, malformation, size, chlorosis and overall plant appearance as compared with a control.
(§2) In this example, Deluvian paddy soil (Toyokawa paddy soil) is placed in plastic pots, 100cm^2 x 9 cm in depth. Water is added to the level of the soil surface in the pot and the mixture is paddled 3 cm in depth.
(§3) Pots are then variously sown with monocotyledenous weed seeds and tubers at 0-2 cm in soil depth, as well as transplanted rice plants at the 2.5 leaf stage. The rice plants are transplanted at about 3 cm soil depth. Water is then added to all of the pots to 3 cm deep and kept at a depth of 3 cm for the duration of the test. Test compounds are applied in the manner described in Example 42 three days after transplanting the rice plants and sowing the weed seeds and tubers. The pots are then placed on greenhouse benches and cared for in the conventional manner. Tests are examined at 25 to 30 days after treatment and rated according to the rating system provided in Example 40. The compounds evaluated are reported by compound number given in Example 40.

GALIUM APARINE = assay: Preemergence herbicidal evaluation, GALAP (Galium); settings: four to five weeks after treatment
Outline: (§4)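 Preemergence, greenhouse: seed + potting soil sown on ~1 inch soil in cups; aqueous acetone spray, ~0.125–0.50 kg/ha equivalent; rated 0-9 vs control at 4–5 wk.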

[…] = Preemergence evaluation in the presence of transplanted rice under flooded paddy conditions (Example 43), MOOVA (Monochoria); settings: applied three days after sowing, 25 to 30 days after treatment
Method: as §1, §2, §3

[2] = system: ORYZA SATIVA, L. TEBONNET; assay: Rice tolerance to post-transplant applications under flooded paddy conditions, ORYSAT (Rice, Tebonnet); settings: post-transplant rice, rated three to four weeks after treatment;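 further: applied to flooded soil surface three days after transplanting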
Outline: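 Greenhouse pots of silt loam, each with two transplanted ten-day-old seedlings, are held under 1.5 to 3 cm of standing water. Three days later the compound is applied to the flooded surface at about 0.5, 0.25, 0.125 or 0.063 kg/ha. Damage is scored visually 0-9 after 3-4 weeks.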

SCIRPUS JUNCOIDES = assay: Preemergence evaluation in the presence of transplanted rice under flooded paddy conditions (Example 43), SCPJU (Bulrush, Japanese); design: key: visual rating on a 0-9 scale, compared with control; settings: applied three days after sowing, 25 to 30 days after treatment
Method: as §1, §2, §3

CHENOPODIUM ALBUM, L. [3] = assay: Postemergence herbicidal evaluation, CHEAL (Lambsquarters, Common); settings: rated four to five weeks after treatment, averaged
Outline: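 Postemergence herbicidal activity on Chenopodium album was tested by spraying two-week-old seedlings grown in jiffy flats with compound in acetone/water (50/50) plus 0.5% TWEEN®20, using a 40 psi nozzle. Four to five weeks after treatment, stand, vigor, malformation, size, chlorosis and overall appearance were scored 0-9 relative to controls, with repeat tests averaged.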

SAGITTARIA PYGMAEA = assay: Preemergence evaluation in the presence of transplanted rice under flooded paddy conditions (Example 43), SAGPY (Arrowhead (Pygmaea)); design: key: visual rating on a 0-9 scale, compared with control; settings: applied three days after sowing, 25 to 30 days after treatment
Method: as §1, §2, §3

ECHINOCHLOA CRUS-GALLI = assay: Preemergence evaluation in the presence of transplanted rice under flooded paddy conditions (Example 43), ECHCG (Barnyard Grass); design: key: visual rating on a 0-9 scale, compared with control; settings: applied three days after sowing, 25 to 30 days after treatment
Method: as §1, §2, §3

[4] = system: ABUTILON THEOPHRASTI, MEDIC.; assay: Postemergence herbicidal evaluation, ABUTH (Velvetleaf); settings: rated four to five weeks after treatment, averaged
Outline: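 This postemergence herbicide test used two-week-old velvetleaf seedlings grown in jiffy flats. Each compound was sprayed at 40 psi as a dispersion in 50/50 acetone/water with 0.5% TWEEN®20 surfactant. Plants then received routine greenhouse care. After four to five weeks, injury was scored visually on a 0-9 scale against a control, and replicate tests were averaged.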

CHENOPODIUM ALBUM, L. [5] = assay: Preemergence herbicidal evaluation, CHEAL (Lambsquarters, Common); settings: four to five weeks after treatment
Outline: as §4

[6] = system: ABUTILON THEOPHRASTI, MEDIC.; assay: Preemergence herbicidal evaluation, ABUTH (Velvetleaf); settings: four to five weeks after treatment
Outline: as §4

IPOMOEA SPP. [7] = assay: Postemergence herbicidal evaluation, IPOSS (Morningglory spp.); settings: rated four to five weeks after treatment, averaged
Outline: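 In this greenhouse postemergence herbicide test on Ipomoea spp. (morningglory), compounds in 50/50 acetone/water with 0.5% TWEEN®20 were sprayed at 40 psi onto seedlings about two weeks old grown in jiffy flats. After four to five weeks, injury was scored on a 0-9 scale covering stand, vigor, malformation, size, chlorosis and overall appearance versus control, with repeat tests averaged.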

[8] = system: CYPERUS SEROTINUS, ROTTB.; assay: Preemergence weed control under flooded paddy conditions, CYPSE (Flatsedge); settings: preemergence weeds, rated three to four weeks after treatment
Outline: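 In undrained pots of silt loam flooded to 1.5-3 cm, compounds are pipetted into the water before emergence at the equivalent of about 0.5, 0.25, 0.125 and 0.063 kg/ha. Plants are scored 0-9 for stand, vigor, malformation, size and chlorosis at test end (3-4 weeks).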

CYPERUS DIFFORMIS = assay: Preemergence evaluation in the presence of transplanted rice under flooded paddy conditions (Example 43), CYPDI (Flatsedge, smallflower); design: key: visual rating on a 0-9 scale, compared with control; settings: applied three days after sowing, 25 to 30 days after treatment
Method: as §1, §2, §3

IPOMOEA SPP. [9] = assay: Preemergence herbicidal evaluation, IPOSS (Morningglory spp.); settings: four to five weeks after treatment
Outline: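 This preemergence greenhouse test scored herbicidal effect on morningglory planted in pint cups, with seed mixed into potting soil and placed over about one inch of soil. After treatment the cups were watered and kept under conventional care. At four to five weeks, plant stand, vigor, malformation, size, chlorosis and overall appearance were compared with a control and rated 0-9.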

With CCOC(=O)Cn1c(=O)[nH]c(=O)n(-c2cc(Oc3ccc(C(F)(F)F)cc3Cl)ccc2[N+](=O)[O-])c1=O [Compound 5, Ethyl 3-{5-[(2-chloro-α,α,α-trifluoro-p-tolyl)oxy]-2-nitrophenyl}tetrahydro-2,4,6-trioxo-s-triazine-1(2H)-acetate] the “Herbicidal effect rating, ORYSAK” value ([1]; 0.032 kg/ha) was 0.0, the “Herbicidal effect rating, ORYSAK” value ([1]; 0.063 kg/ha) was 0.0 and the “Herbicidal effect rating, ORYSAK” value ([1]; 0.125 kg/ha) was 2.0. For the same compound, the “Herbicidal effect rating, ORYSAK” value ([1]; 0.250 kg/ha) was 2.0, the GALAP rating (GALIUM APARINE; Rate 0.125 kg/ha) was 9.0 and the GALAP rating (GALIUM APARINE; Rate 0.250 kg/ha) was 9.0. For the same compound, the GALAP rating (GALIUM APARINE; Rate 0.500 kg/ha) was 9.0, the “Herbicidal effect rating, MOOVA” value ([…]; 0.032 kg/ha) was 9.0 and the “Herbicidal effect rating, MOOVA” value ([…]; 0.063 kg/ha) was 9.0. For the same compound, the “Herbicidal effect rating, MOOVA” value ([…]; 0.125 kg/ha) was 9.0, the “Herbicidal effect rating, MOOVA” value ([…]; 0.250 kg/ha) was 9.0 and the “ORYSAT herbicidal rating (rice tolerance)” value (from here on “ORYSAT herbicidal rating”) ([2]; Rate 0.063 kg/ha) was 3.0. The “ORYSAT herbicidal rating” value ([2]; Rate 0.125 kg/ha) was 4.3, the “ORYSAT herbicidal rating” value ([2]; Rate 0.250 kg/ha) was 5.0 and the “ORYSAT herbicidal rating” value ([2]; Rate 0.500 kg/ha) was 5.3. The “Herbicidal effect rating, SCPJU” value (SCIRPUS JUNCOIDES; 0.032 kg/ha) was 4.0, the “Herbicidal effect rating, SCPJU” value (SCIRPUS JUNCOIDES; 0.063 kg/ha) was 6.0 and the “Herbicidal effect rating, SCPJU” value (SCIRPUS JUNCOIDES; 0.125 kg/ha) was 9.0. For the same compound, the “Herbicidal effect rating, SCPJU” value (SCIRPUS JUNCOIDES; 0.250 kg/ha) was 9.0, the “CHEAL, herbicide rating (0-9)” value (CHENOPODIUM ALBUM, L. [3]; Rate 0.125 kg/ha) was 8.0 and the “CHEAL, herbicide rating (0-9)” value (CHENOPODIUM ALBUM, L. [3]; Rate 0.250 kg/ha) was 8.0. The “CHEAL, herbicide rating (0-9)” value (CHENOPODIUM ALBUM, L. [3]; Rate 0.500 kg/ha) was 8.0, the “Herbicidal effect rating, SAGPY” value (SAGITTARIA PYGMAEA; 0.032 kg/ha) was 1.0 and the “Herbicidal effect rating, SAGPY” value (SAGITTARIA PYGMAEA; 0.063 kg/ha) was 3.0. For the same compound, the “Herbicidal effect rating, SAGPY” value (SAGITTARIA PYGMAEA; 0.125 kg/ha) was 9.0, the “Herbicidal effect rating, SAGPY” value (SAGITTARIA PYGMAEA; 0.250 kg/ha) was 8.0 and the “Herbicidal effect rating, ECHCG” value (ECHINOCHLOA CRUS-GALLI; 0.032 kg/ha) was 8.0. For the same compound, the “Herbicidal effect rating, ECHCG” value (ECHINOCHLOA CRUS-GALLI; 0.063 kg/ha) was 8.0, the “Herbicidal effect rating, ECHCG” value (ECHINOCHLOA CRUS-GALLI; 0.125 kg/ha) was 8.0 and the “Herbicidal effect rating, ECHCG” value (ECHINOCHLOA CRUS-GALLI; 0.250 kg/ha) was 9.0. The “ABUTH, herbicide rating (0-9)” value ([4]; Rate 0.125 kg/ha) was 9.0, the “ABUTH, herbicide rating (0-9)” value ([4]; Rate 0.250 kg/ha) was 9.0 and the “ABUTH, herbicide rating (0-9)” value ([4]; Rate 0.500 kg/ha) was 9.0. For the same compound, the CHEAL rating (CHENOPODIUM ALBUM, L. [5]; Rate 0.125 kg/ha) was 9.0, the CHEAL rating (CHENOPODIUM ALBUM, L. [5]; Rate 0.250 kg/ha) was 9.0 and the CHEAL rating (CHENOPODIUM ALBUM, L. [5]; Rate 0.500 kg/ha) was 9.0. It also gave an ABUTH rating ([6]; Rate 0.125 kg/ha) of 9.0, an ABUTH rating ([6]; Rate 0.250 kg/ha) of 9.0 and an ABUTH rating ([6]; Rate 0.500 kg/ha) of 9.0. The “IPOSS, herbicide rating (0-9)” value (IPOMOEA SPP. [7]; Rate 0.125 kg/ha) was 9.0, the “IPOSS, herbicide rating (0-9)” value (IPOMOEA SPP. [7]; Rate 0.250 kg/ha) was 9.0 and the “IPOSS, herbicide rating (0-9)” value (IPOMOEA SPP. [7]; Rate 0.500 kg/ha) was 9.0. The CYPSE herbicidal rating ([8]; Rate 0.125 kg/ha) was 9.0, the CYPSE herbicidal rating ([8]; Rate 0.250 kg/ha) was 9.0 and the CYPSE herbicidal rating ([8]; Rate 0.500 kg/ha) was 9.0. For the same compound, the “Herbicidal effect rating, CYPDI” value (CYPERUS DIFFORMIS; 0.032 kg/ha) was 8.0, the “Herbicidal effect rating, CYPDI” value (CYPERUS DIFFORMIS; 0.063 kg/ha) was 9.0 and the “Herbicidal effect rating, CYPDI” value (CYPERUS DIFFORMIS; 0.125 kg/ha) was 9.0. The “Herbicidal effect rating, CYPDI” value (CYPERUS DIFFORMIS; 0.250 kg/ha) was 9.0, the IPOSS rating (IPOMOEA SPP. [9]; Rate 0.125 kg/ha) was 9.0 and the IPOSS rating (IPOMOEA SPP. [9]; Rate 0.250 kg/ha) was 9.0. The IPOSS rating (IPOMOEA SPP. [9]; Rate 0.500 kg/ha) was 9.0.
